Test results reported in patent publication US6060600A, “Substituted tetronic acids useful for treating HIV and other retroviruses” (Pharmacia & Upjohn Company, priority 1997, dated 2000).
Square brackets hold non-standard residues; d marks the D form. Peptide text beside a SMILES is read from it. * marks the point of attachment. Sta = CC(C)C[C@H](N)[C@@H](O)CC(=O)O; Isovaleryl = CC(C)CC(=O)*

Tests used:
HIV-1 protease = molecular target: T1, HIV-1 protease (Human immunodeficiency virus type 1 group M subtype B, UniProt P04585); experiment: In vitro HIV protease inhibitory assay (fluorescently labeled substrate); assay type: biochemical; details: pH 5.5, one hour, room temperature
T1 construct: The protease (or proteinase) enzyme, consisting of only 99 amino acids
Description: The HIV protease screening assay is based on a fluorescently labeled substrate which can be resolved from nonlabeled cleavage product using avidin-polystyrene particles, 0.7-0.9 μm. The substrate is biotinylated at the amino terminal arginine and fluorescently labeled with fluorescein isothiocynate (FITC) at the carboxyl terminal lysine. This assay has been employed to detect novel, nonpeptidic inhibitors of HIV-1 protease. Substrate (20 μl of 0.2 μM), sample (10 μl of desired concentration), and enzyme (10 μl of 0.1 μM) are added to a 96 well pandex plate. The assay is run in 0.1 M sodium acetate buffer at pH 5.5 in the presence of 1.0 M sodium chloride and 0.05% NP-40 and incubated in the dark for one hour at room temperature. Avidin coated polystyrene beads (40 μl of 0.1% (w/v)) are added and the incubation is continued in the dark for an additional half hour. The labeled cleavage product is separated from the unreacted substrate via filtration and is read on the IDEXX Screen Machine. (IDEXX Corporation--Portland, Maine) The data are analyzed by appropriate computer algorithms to ascertain percent inhibition values.
The Activity Table showing the results of the HIV Protease Inhibitory Assay appears below in TABLE 1. The table has three columns, the left column provides the code number of the compound for easy cross reference to structure tables and detailed procedures, the middle column provides the concentration of test compound and the column on the right provides the percent inhibition.

HIV-I protease = details: Seelmeier et al.; cited from earlier work
[1] = tested on: viral reverse transcriptase; details: cited from earlier work
[2] = HIV-1 Dose 3.3 (unit not given)
[3] = HIV-1 Dose 10.0 (unit not given)
[4] = HIV-1 Dose 30.0 (unit not given)

| Structure (SMILES) | % Inhibition (HIV-1 protease; [2]) [%] | % Inhibition (HIV-1 protease; [3]) [%] | % Inhibition (HIV-1 protease; [4]) [%] | inhibitor of HIV-I protease (HIV-I protease) | inhibitor of viral reverse transcriptase [1] |
| --- | --- | --- | --- | --- | --- |
| CCC1CCCCC12OC(=O)C(C(c1cccc(NS(=O)(=O)c3ccc(C#N)cc3)c1)C1CC1)=C2O (centres unmarked) [DX-3] | 117.26 | 110.16 | 113.83 |  |  |
| CCC1CCCCC12OC(=O)C(C(c1cccc(NS(=O)(=O)c3ccc(C#N)cc3)c1)C1CC1)=C2O (centres unmarked) [DX-2] | 115.79 | 115.80 | 113.98 |  |  |
| N#Cc1ccc(S(=O)(=O)Nc2cccc(C(C3=C(O)C4(CCNCC4)OC3=O)C3CC3)c2)cc1 (centres unmarked) [BX-2] | 90.58 | 103.27 | 101.26 |  |  |
| CCCC1(CCC)OC(=O)C(C(c2cccc(NS(=O)(=O)c3cccnn3)c2)C2CC2)=C1O (centres unmarked) [DX-1] | 108.97 | 109.57 | 113.85 |  |  |
| CC(C)CC(=O)N[C@H](C(=O)N[C@H](C(=O)N[C@@H](CC(C)C)[C@@H](O)CC(=O)N[C@@H](C)C(=O)N[C@@H](CC(C)C)[C@@H](O)CC(=O)O)C(C)C)C(C)C [Pepstatin A] (Isovaleryl-VV[Sta]A[Sta]-OH) |  |  |  | inhibitor of HIV-I protease |  |
| Cc1cn([C@H]2C[C@H](N=[N+]=[N-])[C@@H](CO)O2)c(=O)[nH]c1=O [AZT, 3-azido-3-deoxythymidine] |  |  |  |  | known inhibitor of viral reverse transcriptase |
| C=CCC1(CC=C)OC(=O)C(C(c2ccccc2)C2CC2)=C1O (centres unmarked) [DX-4] | 108.42 | 106.81 | 106.29 |  |  |
| CCCC1(CCC)OC(=O)C(C(c2cccc(N(C)S(=O)(=O)c3ccc(C#N)cc3)c2)C2CC2)=C1O (centres unmarked) [AX-1] | 103.5 | 111.53 | 102.32 |  |  |

Further lines, with some results ahead:

| % Inhibition (HIV-1 protease; [2]) [%] | % Inhibition (HIV-1 protease; [3]) [%] | % Inhibition (HIV-1 protease; [4]) [%] | Structure (SMILES) | inhibitor of HIV-I protease (HIV-I protease) | inhibitor of viral reverse transcriptase [1] |
| --- | --- | --- | --- | --- | --- |
| 113.09 | 126.98 | 123.63 | N#Cc1ccc(S(=O)(=O)Nc2cccc(C(C3=C(O)C4(CCN(C(=O)OCC5c6ccccc6-c6ccccc65)CC4)OC3=O)C3CC3)c2)cc1 (centres unmarked) [BX-1] |  |  |
| 71.3 | 94.47 | 101.07 | CCN1CCC2(CC1)OC(=O)C(C(c1cccc(NS(=O)(=O)c3ccc(C#N)cc3)c1)C1CC1)=C2O (centres unmarked) [BX-4] |  |  |
| 107.43 | 98.33 | 103.37 | CC(=O)N1CCC2(CC1)OC(=O)C(C(c1cccc(NS(=O)(=O)c3ccc(C#N)cc3)c1)C1CC1)=C2O (centres unmarked) [CX-1] |  |  |
| 61.58 | 85.22 | 98.54 | CN1CCC2(CC1)OC(=O)C(C(c1cccc(NS(=O)(=O)c3ccc(C#N)cc3)c1)C1CC1)=C2O (centres unmarked) [BX-5] |  |  |
| 108.72 | 107 | 103.12 | N#Cc1ccc(S(=O)(=O)Nc2cccc(C(C3=C(O)C4(CCN(CC5c6ccccc6-c6ccccc65)CC4)OC3=O)C3CC3)c2)cc1 (centres unmarked) [BX-3] |  |  |
| 107.56 | 109.04 | 110.58 | N#Cc1ccc(S(=O)(=O)Nc2cccc(C(C3=C(O)C4(CCN(C(=O)c5ccccc5)CC4)OC3=O)C3CC3)c2)cc1 (centres unmarked) [CX-2] |  |  |
